The source of these data is patent US20230218547A1, “CHEMICAL COMPOSITION” (The University of Liverpool, priority 2016, published 2023).

Like-named read-outs stand apart in the source and are kept apart here.

The conditions of data set [1]: humans; known value; cited from earlier work.
Data set [2] is described as follows: Atovaquone release by Rapid Equilibrium Dialysis (RED) in Simulated Interstitial Fluid. The format is physicochemical. The settings on record: initial 6-hour period, SIF, 1 mg/mL atovaquone, 37° C. As to the method: The release rate of atovaquone from solid compositions thereof in accordance with the invention, alongside an equivalent unformulated preparation of atovaquone, was assessed using Rapid Equilibrium Dialysis (RED) (ThermoFisher Scientific). The eleven ‘hit’ formulations were dispersed in Simulated Interstitial Fluid (SIF) and subsequently diluted to 1 mg/mL of atovaquone. The SIF consisted of 35 mg/mL bovine serum albumin (BSA) and 2 mg/mL γ-Globulin derived from bovine blood and dissolved in distilled water. Unformulated atovaquone was initially dissolved in DMSO prior to dilution with SIF, such that the DMSO volume was <1% of the total volume. […] Following incubation, 4 mL ultima gold liquid scintillation cocktail fluid (Meridian Biotechnologies, UK) was added to each 0.1 mL sample and radioactivity was determined as disintegrations per minute (DPM) using a Perkin Elmer 3100TS scintillation counter. Data is expressed as the amount of atovaquone released and diffused across the membrane as a percentage of the starting donor amount, in triplicate, for each of the eleven hit formulations as compared to unformulated atovaquone, as shown in FIGS. 3A-3K (error bars are ±1 S.D.) and FIG. 4 (release after 24 hours) (error bars are ±1 S.D.). […]

For data set [3] the following is noted: in vivo.
For data set [4] the following is noted: orally dosed; mice; known value; cited from earlier work.
The conditions of data set [5]: background statement; cited from earlier work.
On the set-up of data set [6]: species or system mice. The following applies: mouse, in vivo. On the procedure: Mice were injected intramuscularly with 200 mg/kg of an atovaquone nanoformulation. At intervals blood was harvested (microtainer tubes, BD Biosciences), centrifuged (1300×g, 10 min, 4° C.), and plasma was collected and stored at −80° C. until use. The nanoformulations tested were ACS_ATQ_7 and ACS_ATQ_8.
The concentration of atovaquone in the plasma was assayed by UPLC-MS/MS. Briefly, acetonitrile and deuterated atovaquone internal standard were added to 25 μL of thawed plasma, followed by filtration (Captiva filtration plate, Agilent Technologies). A 5 μL aliquot was separated on a reverse phase column and atovaquone was monitored by triple-quadrupole API4000 (SCIEX, Framingham, Mass., USA) mass analyzer with electrospray ionization. The assay was validated to FDA guidelines for 250-50,000 ng/mL. Values between 250 and 77 ng/mL (the limit of detection) were interpreted conservatively.

Consider `O=C1C(O)=C([C@H]2CC[C@H](c3ccc(Cl)cc3)CC2)C(=O)c2ccccc21` [atovaquone], for which the plasma half-life in data set [1] was 70 h; in data set [4], 9 h. Moreover, the “Release Rate” value is 0.006 h⁻¹ in data set [2] (Table 3) and 0.0060 h⁻¹ in data set [2] (different loadings, Table 7). The “disposition of atovaquone in humans relative to mice” value in data set [3] is on record as “approximately eight”. In addition, the lipophilicity result in data set [5] is “highly lipophilic”. Besides, the solubility in water result in data set [5] is “practically insoluble”. Also, in data set [6], the “plasma concentration of atovaquone that correlates with successful prophylaxis” value is on record as above 200 ng/mL.
